This passage reports melting point results from a melting point compilation (Tetko et al.; mined from patent text by program, amines drawn as free bases though some values may be those of a salt).

Non-standard residues stand in square brackets, D forms with d. Residues, ends and D or L forms follow the SMILES beside them. *: point of attachment. 1Nal = N[C@@H](Cc1cccc2ccccc12)C(=O)O; Cbz = O=C(OCc1ccccc1)* Bounds are passed on as bounds.

`C=CCOC(=O)[C@@H]1CCC[C@@H]1C(N)=O` (relative stereo): the melting point turned out to be 35 °C.

As for `Cc1cccc(S(=O)(=O)Cc2c(C(F)(F)F)n[nH]c2O)c1`, the melting point was in the range of 130 to 133 °C.

In turn, `CC(C)C[C@@H](C=O)NC(=O)[C@H](Cc1c[nH]cn1)NC(=O)[C@H](Cc1cccc2ccccc12)NC(=O)OCc1ccccc1` (Cbz-[1Nal]-His-Leu-aldehyde) showed a melting point of 106 to 108 °C.

As for `O=C(O)CNC(=O)Cc1ccccc1S`, the melting point is 91 to 93 °C.

The molecule `C=C1C(=O)N[C@@H](Cc2ccccc2)C(=O)N1C(C)C` showed a melting point of 141 to 142 °C.

Molecule `CN1CCN(C)CC(OC(=O)c2n[nH]c3ccccc23)C1` registered a melting point of 184 to 185 °C.

`Cc1cc(C)c(N2CCCc3c2[nH]n(C)c3=O)c(Cl)c1` had a melting point of 95.9 to 99.9 °C.

`O=C1Nc2ccccc2CC(C(=O)Nc2ccc(Br)cc2)C1=O` (configuration not stated) registered a melting point of 226 to 228 °C.

With `CN(C)Cc1c[nH]c2ccc(Br)cc12`, the melting point is 139 °C.

On to `OCc1ccc2c(c1)C=C(n1ccnc1)CC2`, for which the melting point lay within 88 to 91 °C.

`CN(C)C(=N[N+](=O)[O-])N(C)Cc1cnc(Cl)s1` came in with a melting point of 101 to 102 °C.

For the molecule `CCOC(=O)c1ccc(-c2nc(COc3ccc(COc4nn(-c5ccccc5)cc4/C=C\c4csc(CC)n4)cc3OC)c(C)o2)o1`, the melting point was 133 to 135 °C.

Regarding `COc1ccnc(Cc2cnc(NCCSCc3nc[nH]c3C)[nH]c2=O)c1`, the melting point fell in the range of 128 to 130 °C.

`CCCCC(=O)Nc1cccc(-n2nc(CCCC)n(Cc3ccc(-c4ccccc4S(=O)(=O)NC(=O)c4ccccc4Cl)cc3)c2=O)c1` returned a melting point of 102 to 105 °C.

Consider `N#Cc1ccc(C(=C2CCCCC2)c2nc[nH]n2)cc1`, for which the melting point lay within 92 to 93 °C.

`CC1(C)C(=O)N(Cl)C(C)(C)C(=O)N1Cl` registered a melting point of 176 to 178 °C.

Take `Cc1cc2c(c(C)c1O)C(C)(C)C(C)C2C` (configuration not stated): the melting point was in the range of 55 to 57 °C.

`Cc1cc(OCc2ccc(-c3ccc(C(F)(F)F)cc3)nc2C)ccc1OC(C)(C)C(=O)O` had a melting point of 164 to 165 °C.

On to `[N-]=[N+]=NCC(O)COc1ccc(-c2ccccc2)cc1` (configuration not stated), for which the melting point was in the range of 72.2 to 73.9 °C.

With `Cc1cc(N2CNC(=O)C23CCN(CCCn2c(=O)[nH]c4ccccc42)CC3)ccc1Cl`, the melting point came out at 209 °C.

With `O=C1c2cccnc2N(c2ccccc2)C(=O)C12CCCC2`, the melting point is 178 to 179 °C.

In turn, `CC1(C)OCC(CN2C(=O)C3(COc4cc5c(cc43)OCCO5)c3ccccc32)O1` (configuration not stated) displayed a melting point of 55 to 57 °C.

Consider `CC#CC(C)(C)N(C)C(=O)C(CC)Oc1cncc(Cl)c1` (configuration not stated), for which the melting point lay within 67 to 68 °C.

Consider `Cc1ccc(N2C(=O)c3ccccc3NC2c2ccc(=O)[nH]c2)cc1C(F)(F)F` (configuration not stated), for which the melting point fell in the range of 250 to 251 °C.

In turn, `CC(=NNC(=O)C1CC1)c1ccc(Cl)nc1` showed a melting point of 218 °C.

On to `CCC(O)(c1ccc(O)cc1)c1ccc(Cl)cc1` (configuration not stated), for which the melting point lay within 148 to 149 °C.

`CCOC(=O)c1cc2c(C)c(C)cc(NS(=O)(=O)c3cccs3)c2[nH]1`: the melting point fell in the range of 161 to 162 °C.

Take `CCc1nc2cc(S(C)(=O)=O)c(Cl)cc2n1-c1ccc(CCOC(=O)NS(=O)(=O)c2ccc(C)cc2)cc1`: the melting point was in the range of 105 to 110 °C.

`N=C(NC(c1ccccc1)c1ccccc1)N1CCOCC1` gave a melting point of 122 to 124 °C.

The molecule `O=c1[nH]c2ccc(CCBr)cc2o1` gave a melting point of 148 to 151 °C.

As for `COCc1noc(-c2ncn3c2CN(C)C(=O)c2cc(F)ccc2-3)n1`, the melting point is 192 to 194 °C.

`Nc1cc2c(Nc3ccc(F)c(Cl)c3)ncnc2cc1OCC1CCCO1` (configuration not stated): the melting point fell in the range of 162 to 164 °C.

As to `COC(=O)C(C)(C)Oc1ccc(-c2ccc(CCNC(=O)c3cc(Cl)ccc3OC)cc2)cc1`, the melting point was less than 20 °C.

For `N=c1sc2cc(OC(F)(F)F)ccc2n1CCSCc1ccccn1`, the melting point stood at 125 °C.

Molecule `C#CCOc1ccc(-c2nc3cnncc3[nH]2)c(OC)c1` returned a melting point of 224 °C.

`O=C(Nc1ccc([N+](=O)[O-])cc1)c1ccc(F)cc1` registered a melting point of 117 to 118 °C.

For the molecule `CC1C(NC(=O)OCc2ccccc2)C(=O)N1OCC(=O)OC(C)(C)C` (configuration not stated), the melting point came to 30 °C.

`CN(CCNc1ccnc2c(NC(=O)c3c(Cl)cccc3Cl)cccc12)C(=O)n1ccnc1` registered a melting point of 202 °C.

Take `CC(C)CCSc1cc(C(=O)O)cc(N)c1-c1ccccc1`: the melting point lay within 124 to 126 °C.

As for `O=C1OC(O)c2cccc(Cl)c21` (configuration not stated), the melting point lay within 140 to 145 °C.

For `Cc1c(Cl)c(Oc2ccc(C(F)(F)F)cc2[N+](=O)[O-])nn1C(=O)NC(C)C`, the melting point was 89 to 91 °C.

Consider `Cn1cnc(S(=O)(=O)N2CCS(=O)(=O)CC2)c1`, for which the melting point was 179 to 180 °C.

Molecule `C[C@@]1(C=O)S[C@@H]2CC(=O)N2[C@H]1C(=O)OC(c1ccccc1)c1ccccc1` yielded a melting point of 112 to 113 °C.

As to `Cc1c(-c2ccnn2-c2ccc(C#N)cc2)nc(C(N)=O)c(=O)n1-c1cccc(C(F)(F)F)c1`, the melting point came out at 264 °C.

Consider `CCOC(=O)C1=C(N2CCCC2)N=C(C)C(C(=O)OCC)C1c1ccccc1` (configuration not stated), for which the melting point was 57 °C.

`COC(=O)Cc1ccc(NC(=O)c2sc3ccc(OC)cc3c2OC(C)C)cc1` had a melting point of 111 to 113 °C.

Molecule `CCNC(=O)Nc1ccc(-c2sc3c(c2CN(C)C(C)C)c(=O)n(-c2ccccc2)c(=O)n3Cc2c(F)cccc2F)cc1` yielded a melting point of 208 to 210 °C.

The molecule `Cc1cc2c(cc1-c1csc(C=CC(=O)O)c1)C(C)(C)CCC2(C)C` had a melting point of 215 to 220 °C.

In turn, `CCOCc1nc2c(N)nc3cccnc3c2n1CC1(O)CCCC1` gave a melting point of 165 to 166 °C.

`Cc1cc2cccc([C@H](O)CO)c2nc1-c1ccccc1`: the melting point is 117 °C.

For `O=C(CC(O)(c1cc(Cl)cc(Cl)c1)C(F)(F)F)c1ccc(F)c(Br)c1` (configuration not stated), the melting point was 134 to 135 °C.

`O=C(CCCCC1CCSS1)N1CCSCC1` (configuration not stated) showed a melting point of 31 to 32 °C.

In turn, `C1=C[C@H]2CCN(CC3CC3)C[C@@H]2Cc2ccccc21` (relative stereo) returned a melting point of 157 to 159 °C.

As for `N#Cc1cncc(OC2SCC(O)C(O)C2O)c1` (configuration not stated), the melting point stood at 149 °C.

The molecule `CS(=O)(=O)Oc1ccc(-n2nc(C#N)cc2-c2ccc(S(C)(=O)=O)cc2)cc1` registered a melting point of 195 to 196 °C.

For the molecule `CCOC(=O)c1cc(-n2c(=O)[nH]c3c(c2=O)CCCC3)ccc1Cl`, the melting point was 196 to 198 °C.

On to `Cn1nc(C#N)c(Nc2ccc(C(F)(F)F)cc2[N+](=O)[O-])n1`, for which the melting point is 116 to 117 °C.

As to `CCOC(C(N)=O)N(c1ccc(Cl)cc1Cc1c(F)cccc1F)S(=O)(=O)c1ccc(OC)c(OC)c1` (configuration not stated), the melting point was 154 °C.

The molecule `CSc1c(C)c(-c2cc(OS(=O)(=O)C(F)(F)F)c(Cl)cc2F)nn1C` yielded a melting point of 54 to 56 °C.

`Clc1nc(-n2cnc(-c3ccccc3)c2-c2ccccc2)c2[nH]cnc2n1` yielded a melting point of 278 °C.

Regarding `Cc1ccc2c(c1)[C@H]1Cc3ccccc3[C@H]1N2C` (relative stereo), the melting point stood at 54 °C.

For `N#Cc1ccc(N2CCc3ccccc32)cc1`, the melting point was 88.5 to 89.5 °C.

As for `Cc1cc(NS(=O)(=O)c2ccc(F)cc2)cc(C)c1S(=O)(=O)C[N+](=O)[O-]`, the melting point fell in the range of 152 to 154 °C.

For `N#Cc1cc(N)ccc1N1CCC(c2ccccc2)CC1`, the melting point lay in the range of 158 to 162 °C.

For the molecule `COc1c(-c2cc3c(s2)CCC/C3=N\OCc2cccnc2)ccc2c(=O)c(C(=O)O)cn(C3CC3)c12`, the melting point was 181 to 183 °C.

For `COC(=O)C=CC(=O)N[C@@H](CO)c1ccccc1`, the melting point lay within 75 to 77 °C.

`O=C1CCC(N2C(=O)c3cccc(CNC(=O)c4cc(Cl)cnc4Cl)c3C2=O)C(=O)N1` (configuration not stated) had a melting point greater than 260 °C.

Take `CC(C)CC1NCCNC1=O` (configuration not stated): the melting point is 75 to 77 °C.

For `CCCc1oc(C)cc(=O)c1C(=O)Nc1cccc(C)c1C`, the melting point fell in the range of 133 to 135 °C.

As to `CC1=C(C(=O)OCC=Cc2ccccc2)C(c2ccccc2C(F)(F)F)c2c(ccnc2OC(C)C)N1` (configuration not stated), the melting point fell in the range of 164 to 166 °C.

`Cc1ccc(-n2nc(O)c3[nH]c4cc(Cl)cc(Cl)c4c(=O)c3c2=O)c(C)c1` returned a melting point of 335 to 336 °C.

`COC(=O)N(C)CCCC(=O)OC[C@@H]1CC(c2ccc(-c3ccc(N4C[C@H](Cn5ccnn5)OC4=O)cc3F)cn2)=NO1` came in with a melting point of 135 °C.

The molecule `O=c1c2c[nH]c3c(c-2nn1-c1ccccc1)CCC3` came in with a melting point greater than 350 °C.

In turn, `COCCC1CCN(c2ccc(C#N)c3sccc23)C1` (configuration not stated) showed a melting point of 88 to 89 °C.

Molecule `C=CC[C@@H]1C[C@@H](COc2ccc(-c3ccc(C#N)cc3)cc2)N(Cc2ccc(OC)cc2)C1=O` registered a melting point of 120 to 122 °C.

Consider `COc1ccc([C@H]2SC=C(c3ccccc3)N(CCN(C)C)C(=O)[C@H]2O)cc1`, for which the melting point fell in the range of 110 to 112 °C.

In the case of `Nc1c(C(F)(F)F)cnn1-c1c(Cl)cc(C(F)(F)F)cc1Cl`, the melting point turned out to be 106 °C.

With `CN(C)Cc1ccc(SC2CCN(C(=O)OCc3ccccc3)CC2)cc1`, the melting point stood at 144 °C.

The molecule `CC(=O)Nc1ccc(COc2cccc(C(N)=O)c2)cc1` gave a melting point of 198 to 199 °C.

On to `COC(=O)c1cc2c(Br)cccc2n1C`, for which the melting point was 85 to 86 °C.

In turn, `CC(C)(C)c1ccc(Oc2nc(-c3ccc(Cl)cc3)c(CCC(=O)O)o2)cc1` had a melting point of 166 to 167 °C.

`CCCC(=O)C(Cc1ccc(-c2ccccc2-c2nnn[nH]2)cc1)C(=O)OCC` (configuration not stated) yielded a melting point of 65 °C.

In turn, `COc1ccc(NC(=O)c2ccccc2Cl)cc1` displayed a melting point of 113 to 115 °C.

The molecule `NC(=O)NCc1ccc(CNC(=O)[C@@H](CCCNC(N)=N[N+](=O)[O-])NC(=O)OCc2ccc3ccccc3c2)cc1` displayed a melting point of 155 to 160 °C.

As to `NC(=S)N1c2ccccc2C=Cc2ccccc21`, the melting point was in the range of 192 to 194 °C.

`Cc1c(Cl)c(Cl)c(Cl)c(Cl)c1CCl` showed a melting point of 102 to 103 °C.

Molecule `COc1nc2cc([N+](=O)[O-])c(C)c(C(=O)N[C@@H](Cc3ccccc3)C(=O)OC(C)(C)C)c2nc1OC` returned a melting point of 86 to 88 °C.
